Where two headings read alike, the source gives them in different places. *1 amine or outer side, *2 acyl side, *3 side chain or, on linkers, in order; H or OH if unused. Where a SMILES comes first, the peptide text is derived from it. Bridges are numbered along the chain shown (N, C = ends). [ ]: non-standard residue; d: D form. βAsp = O=C(O)[C@H](CC(=O)[*:2])N[*:1]
Columns and labels:
[1] = stability / deamidation kinetics of peptides by RP-HPLC; assay type: physicochemical; conditions: for stability under integrin binding assay conditions: assay conditions of competitive binding
Procedure: RP-HPLC analysis of NGR-pep and its synthetic deamidation products (DGR-pep and isoDGR-pep) before and after incubation for 4 h at 37° C. in 0.1 M ammonium bicarbonate buffer, pH 8.5 (A and B) and in DMEM, pH 7.3 (A, inset). RP-HPLC was performed on a C-18 column (PepMap C18, PerSeptive Biosystem) as follows: buffer A, 0.1% trifluoroacetic acid (TFA) in water; buffer B, 95% acetonitrile, 0.1% TFA; 0% B for 10 min, linear gradient 20-40% B in 30 min, 100% B for 10 min; 0% B for 15 min (flow rate, 0.5 ml/min). Peak 1, 2 and 3 were identified by spiking the NGR-pep, after 2 h of incubation, with equal amount of the indicated peptide (C). NGR-pep (peak 1) rapidly converts to compounds corresponding to DGR-pep (peak 2) and isoDGR-pep (peak 3) (half-life, 2-4 h).
The stability of NGR and the kinetics of LisoDGR or DDGR formation at pH 7.3 (DMEM) and pH 8.5 (ammonium bicarbonate), were then investigated. To this aim the CNGRCGVRY (SEQ ID NO: 42) peptide (called NGR-pep) was synthesized and analyzed by reverse-phase HPLC, before and after incubation at 37° C. Residues GVRY (SEQ ID NO: 72) were added to the C-terminus of CNGRC (SEQ ID NO: 6) to enable column adsorption. In addition five peptides called, DGR-pep, D-DGR-pep, isoDGR-pep, D-isoDGR and SGR-pep, corresponding to the same sequence of NGR-pep except for the presence of D, D-D, L-isoD, D-isoD and S, respectively in place of N were prepared. The half-life of NGR-pep at pH 7.3 and 8.5, estimated from the height of the main chromatographic peak (peak 1), was about 4 and 2 h, respectively (FIG. 5A, inset). Peptides corresponding to deamidation products were stable under these conditions (FIG. 5B).
To identify peaks and to verify that the measured half-life correspond to Asn deamidation, and not to other structural changes, we analyzed heat-treated NGR-pep peptide spiked with fresh NGR-pep, or DGR-pep or isoDGR-pep peptides.

αvβ3 = target: T1, αvβ3 (Homo sapiens, UniProt P05106+P06756); test: IC50 (μM)
T1 construct: purchased Immunological Sciences
T1 sequence (P05106 27-788 limits assumed): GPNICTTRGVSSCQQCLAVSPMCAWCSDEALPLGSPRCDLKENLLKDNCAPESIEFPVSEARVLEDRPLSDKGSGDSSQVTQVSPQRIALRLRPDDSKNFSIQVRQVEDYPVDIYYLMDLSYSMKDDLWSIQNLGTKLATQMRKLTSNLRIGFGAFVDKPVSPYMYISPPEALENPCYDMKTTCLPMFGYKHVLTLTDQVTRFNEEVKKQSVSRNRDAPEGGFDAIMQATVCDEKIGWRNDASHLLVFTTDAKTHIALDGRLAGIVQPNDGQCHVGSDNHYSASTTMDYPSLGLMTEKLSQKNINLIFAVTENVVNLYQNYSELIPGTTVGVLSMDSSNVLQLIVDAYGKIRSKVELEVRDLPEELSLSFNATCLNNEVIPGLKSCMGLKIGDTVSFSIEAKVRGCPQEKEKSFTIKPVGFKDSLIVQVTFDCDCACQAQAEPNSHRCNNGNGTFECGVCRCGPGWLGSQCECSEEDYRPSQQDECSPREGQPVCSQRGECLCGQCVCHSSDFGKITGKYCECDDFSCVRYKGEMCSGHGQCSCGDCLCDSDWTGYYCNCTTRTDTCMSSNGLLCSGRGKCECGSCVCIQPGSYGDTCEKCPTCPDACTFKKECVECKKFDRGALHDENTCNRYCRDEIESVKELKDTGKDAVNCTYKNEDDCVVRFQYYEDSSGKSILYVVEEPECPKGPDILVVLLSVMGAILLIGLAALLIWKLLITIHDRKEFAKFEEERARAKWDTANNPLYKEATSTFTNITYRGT
T1 sequence (P06756 31-889 limits assumed): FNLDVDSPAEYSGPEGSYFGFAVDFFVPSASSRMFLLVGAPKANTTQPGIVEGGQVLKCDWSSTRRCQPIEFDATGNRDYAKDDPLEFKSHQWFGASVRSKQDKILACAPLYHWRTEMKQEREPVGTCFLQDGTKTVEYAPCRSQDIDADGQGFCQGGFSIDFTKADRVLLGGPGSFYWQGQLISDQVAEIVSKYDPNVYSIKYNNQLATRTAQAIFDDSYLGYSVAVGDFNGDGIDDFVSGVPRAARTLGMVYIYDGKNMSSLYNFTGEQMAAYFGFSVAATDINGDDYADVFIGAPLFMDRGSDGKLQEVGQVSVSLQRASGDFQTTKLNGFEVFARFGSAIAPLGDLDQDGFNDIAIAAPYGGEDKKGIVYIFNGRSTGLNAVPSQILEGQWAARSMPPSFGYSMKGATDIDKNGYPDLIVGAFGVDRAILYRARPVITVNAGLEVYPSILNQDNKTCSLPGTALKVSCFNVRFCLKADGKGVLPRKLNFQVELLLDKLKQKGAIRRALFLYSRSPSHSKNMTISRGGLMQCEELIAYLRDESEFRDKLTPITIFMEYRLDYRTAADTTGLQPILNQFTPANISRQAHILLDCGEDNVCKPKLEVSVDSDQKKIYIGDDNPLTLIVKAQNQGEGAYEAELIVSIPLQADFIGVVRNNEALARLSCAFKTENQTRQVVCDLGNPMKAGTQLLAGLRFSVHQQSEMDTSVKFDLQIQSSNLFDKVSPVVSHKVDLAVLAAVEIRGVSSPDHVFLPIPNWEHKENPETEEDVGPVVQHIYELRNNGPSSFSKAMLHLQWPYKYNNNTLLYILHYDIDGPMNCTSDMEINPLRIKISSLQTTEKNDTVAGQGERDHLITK
T1 sequence (P06756 891-1048 limits assumed): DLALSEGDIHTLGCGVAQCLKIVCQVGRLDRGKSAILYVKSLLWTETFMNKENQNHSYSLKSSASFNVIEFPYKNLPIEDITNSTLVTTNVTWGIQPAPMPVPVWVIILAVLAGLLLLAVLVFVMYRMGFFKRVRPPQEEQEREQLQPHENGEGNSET
Source text: Table printed on a drawing sheet, Figure 7
Head of the field: IC50 (μM)
The patent's description of the figure: FIG. 7 Competitive binding of NGR-TNF to αvβ3 with NGR-pep and its deamidated products to αvβ3.
First copying reader's note: Legend table of panel A (inhibition of bio-NGR-TNF binding to αvβ3): the first three body rows belong to the upper plot and the last five to the lower plot, which prints no head of its own; the plot marker symbols are left out.
Where the first naming reader finds the target: description_of_the_figure: FIG. 7 Competitive binding of NGR-TNF to αvβ3 with NGR-pep and its deamidated products to αvβ3.

EA.hy926 cells = test: EA.hy926 cell adhesion assay on coated microtiter plates; assay type: cell-based, human; conditions: for EA.hy926 cell adhesion to coated product after heat-treatment: 0.1 M ammonium bicarbonate buffer, pH 8.5, 16 h at 37° C.; for EA.hy926 cell adhesion to coated product: before heat treatment
Procedure: Adhesion of EA.hy926 cells to microtiter plates coated with various peptides and proteins before and after accelerated aging. Accelerated aging was performed by peptide incubation in 0.1 M ammonium bicarbonate buffer, pH 8.5, for 16 h at 37° C. (“heat-treatment”). Adhesion to: recombinant FN-I4-5 or control protein (FN-I4-5 (SGS)) (A), synthetic FN-I5 (B), recombinant CNGRC-TNF, CNGRC-TNF1-11 and control CARAC-TNF1-11 peptide (C), CDGRC-TNF (D). Heat-treated (37° C.) and untreated (−20° C.) products were adsorbed onto the plastic surface of microtiter wells (overnight at 4° C.). Microphotograph of wells coated with 30 μg/ml of heat-treated FN-I5 or BSA (B, right) or with 10 μg/ml of recombinant CNGRC-TNF or CDGRC-TNF (C, right), ×200. Cell adhesion assay was carried out as described in Materials and Methods. The TNF fusion constructs, including the TNF1-11 fusion constructs, were made as described Materials and Methods, and include a “G” linker.
Untreated and “heat treated” fibronectin fragments, peptides and peptide-TNF conjugates were diluted at the desired concentration with 150 mM sodium chloride, 50 mM sodium phosphate, pH 7.3, and added to 96-well polyvinyl chloride microtiter plates (Falcon, Becton Dickinson). After overnight incubation at 4° C., the plates were washed, seeded with EA.hy926 cell in DMEM containing 0.1% BSA (40000 cells/well) and left to incubate for 2-3 h at 37° C., 5% CO2. Adherent cells were fixed and stained with crystal violet as described (Curnis et al., 2005).

L-M mouse fibroblasts = test: standard cytolytic assay with L-M mouse fibroblasts; assay type: cell-based; conditions: in vitro, L-M murine fibroblasts
Source text: Protein purity and identity were checked by SDS-PAGE, electrospray mass spectrometry and gel-filtration chromatography.
The cDNA coding for DGR-TNF (mouse TNF fused with the C-terminus of CDGRCG (SEQ ID NO: 24)) was obtained by PCR on NGR-TNF plasmid, using the following primers: 5′ […] 3′ (SEQ ID NO: 43) (5′ primer); 5′ […] ′3 (SEQ ID NO: 44) (3′ primer). Both primers were designed to allow the directional cloning into a pET101/D-TOPO plasmid expression kit (Invitrogen). The underlined sequence in 5′ primer contains the sequence necessary to enable the directional cloning and the initial translation codon whereas the 3′ primer contains the stop codon (underlined). The PCR reaction and the cloning procedure were performed as recommended by the manufacturer's instruction. […] The column was washed extensively 100 mM Tris-HCl buffer containing pH 8.0, loaded with DGR-TNF crude extract, diluted in 20 mM Tris-HCl buffer conatining 2 mM EDTA pH 8.0, and desorbed by elution with 7 M urea, 100 mM Tris-HCl, pH 8.0. DGR-TNF was then refolded as described (1). Briefly, the denatured products were dialyzed against 2.33 M urea, 100 mM Tris-HCl, pH 8.0 at 4° C. (140 min), followed by 1.55 M urea, 100 mM Tris-HCl, pH 8.0 (140 min), and 1 M urea, 100 mM Tris-HCl, pH 8 (140 min). Finally the products were dialyzed against 100 mM Tris-HCl, pH 8.0 (48 h). The products were centrifuged at 13000×g (10 min, 4° C.) and concentrated by ultra-filtration through a 10 KDa cut-off filter. All solutions used in the purification and refolding steps were prepared with sterile and endotoxin-free water (S.A.L.F. Laboratorio Farmacologico SpA, Bergamo, Italy). Protein concentration was measured using the BCA Protein Assay Reagent (Pierce, Rockford, Ill.). Protein purity and identity were checked by SDS-PAGE, electrospray mass spectrometry (ESI-MS) and analytical gel-filtration chromatography.

αvβ3 integrin = target: T2, αvβ3 integrin (Homo sapiens, UniProt P05106+P06756); test: competitive binding of biotinylated FN-I5/streptavidin-peroxidase complexes to αvβ3-coated plates; conditions: in words, FIG. 6C
T2 construct: purchased Immunological Sciences
T2 sequence (P06756 31-889 limits assumed): as the sequence (P06756 31-889 limits assumed) above
T2 sequence (P06756 891-1048 partner limits assumed): as the sequence (P06756 891-1048 limits assumed) above
T2 sequence (P05106 27-788): as the sequence (P05106 27-788 limits assumed) above
Procedure: (C) Competitive binding of biotinylated FN-I5/streptavidin-peroxidase complexes to αvβ3-coated plates with various amounts of FN-I4-5 or FN-I4-5SGS (upper panel or peptides corresponding to the NGR loop (residues 258-271) of FN-I5 before and after heat treatment (lower panel).
Binding of biotinylated peptides (CNGRC (SEQ ID NO: 6)-TNF1-11, CARAC (SEQ ID NO: 36)-TNF1-11 and FN-I5) to purified integrins was studied using streptavidin-peroxidase conjugate complexes. Complexes were prepared by mixing various quantities (0.5-1 μg) of heat-treated biotinylated peptides in DPBS containing 3% BSA with 0.03 units of streptavidinperoxidase (binding capacity: 1 μg of biotin/unit of streptavidin-peroxidase) (final volume 15 μl). Complexes were diluted in 3% BSA-DPBS (1:500), added to microtiterplates coated with integrins as described above, and incubated for 2 h at room temperature. After washing with DPBS, bound peroxidase was detected by chromogenic reaction as described above. Each assay was carried out in triplicate.
The binding of heat-treated FN-I5, CNGRC (SEQ ID NO: 6)-TNF and short peptides to purified αvβ3, αvβ5, α5β1 and α1β1 integrins was then investigated by direct and competitive ELISA with integrins adsorbed on microtiterplates.

CC(C)[C@H](NC(=O)CNC(=O)[C@@H]1CSSC[C@H](N)C(=O)N[C@H](CC(=O)O)C(=O)NCC(=O)N[C@@H](CCCNC(=N)N)C(=O)N1)C(=O)N[C@@H](CCCNC(=N)N)C(=O)N[C@@H](Cc1ccc(O)cc1)C(=O)O [DDGR-pep] (H-C[dD]GRCGVRY-OH; disulfide 1-5 (inferred); N-terminus and C-terminus assumed)
stability under integrin binding assay conditions [1]: stable

CC(C)[C@H](NC(=O)CNC(=O)[C@@H]1CSSC[C@H](N)C(=O)N[C@@H](CC(=O)O)C(=O)NCC(=O)N[C@@H](CCCNC(=N)N)C(=O)N1)C(=O)N[C@@H](CCCNC(=N)N)C(=O)N[C@@H](Cc1ccc(O)cc1)C(=O)O [DGR-pep] (H-CDGRCGVRY-OH; disulfide 1-5; N-terminus and C-terminus assumed)
IC50 (αvβ3): 60 µM

CC(C)[C@H](NC(=O)CNC(=O)[C@@H]1CSSC[C@H](N)C(=O)N[C@@H](CC(N)=O)C(=O)NCC(=O)N[C@@H](CCCNC(=N)N)C(=O)N1)C(=O)N[C@@H](CCCNC(=N)N)C(=O)N[C@@H](Cc1ccc(O)cc1)C(=O)O [NGR-pep, CNGRCGVRY] (H-CNGRCGVRY-OH; disulfide 1-5; N-terminus and C-terminus assumed)
IC50 (αvβ3): 25 µM
stability when stored in water ([1]; 37° C., water): stable for more than one week
half-life ([1]; ammonium bicarbonate buffer and DMEM, 37° C., pH 8.5 ammonium bicarbonate and DMEM pH 7.3 (FIG. 5 legend), read-out: half-life of conversion to DGR-pep and isoDGR-pep): 2 to 4 h
half-life ([1]; ammonium bicarbonate buffer, pH 8.5 (0.1 M ammonium bicarbonate), 37° C., read-out: half-life (height of main chromatographic peak) (converted)): ~2 h
half-life ([1]; pH 7.3 (DMEM), 37° C., read-out: half-life (height of main chromatographic peak) (converted)): ~4 h

CC(C)[C@H](NC(=O)CNC(=O)[C@@H]1CSSC[C@H](N)C(=O)N[C@@H](CO)C(=O)NCC(=O)N[C@@H](CCCNC(=N)N)C(=O)N1)C(=O)N[C@@H](CCCNC(=N)N)C(=O)N[C@@H](Cc1ccc(O)cc1)C(=O)O [SGR-pep] (H-CSGRCGVRY-OH; disulfide 1-5; N-terminus and C-terminus assumed)
IC50 (αvβ3): > 1000 µM

CC(C)[C@H](NC(=O)CNC(=O)[C@@H]1CSSC[C@H](N)C(=O)N[C@H](C(=O)O)CC(=O)NCC(=O)N[C@@H](CCCNC(=N)N)C(=O)N1)C(=O)N[C@@H](CCCNC(=N)N)C(=O)N[C@@H](Cc1ccc(O)cc1)C(=O)O [isoDGR-pep] (H-C[βAsp]GRCGVRY-OH; disulfide 1-5 (inferred); N-terminus and C-terminus assumed)
stability under integrin binding assay conditions [1]: stable

Cys-Asp-Gly-Arg-Cys-Gly-(SEQ ID NO: 24)TNF [CDGRC-TNF]
EA.hy926 cell adhesion to coated product after heat-treatment (EA.hy926 cells): completely inactive
EA.hy926 cell adhesion to coated product (EA.hy926 cells): completely inactive
Cytolytic Activity (L-M mouse fibroblasts): 2.59 (±0.69)×10^8 U/mg
Cytolytic Activity (L-M mouse fibroblasts; listed as DGR-TNF): 2.5×10^8 U/mg

FN-I4-5: recombinant human fibronectin 4-5th type I repeats, residue 184-273, His-tag at the N-terminus
EA.hy926 cell adhesion to coated product after heat-treatment (EA.hy926 cells): increase of cell adhesion
EA.hy926 cell adhesion to coated product (EA.hy926 cells): promoted cell adhesion
competition of the binding of FN-I5 to αvβ3 (αvβ3 integrin): could compete

Loop-GNGRG: peptide corresponding to the NGR loop of FN-I5 (LQCISTGNGRGEWKCE)
competition of the binding of FN-I5 to αvβ3 (αvβ3 integrin): Binding competition was observed

Loop-RGGNG: control loop peptide of FN-I5 with scrambled sequence at the GNGRG site (LQCISTRGGNGEWKCE) [reference compound]
competition of the binding of FN-I5 to αvβ3 (αvβ3 integrin): not

Source: patent publication US7795386B2, “Peptides comprising an isoDGR motif” (Molmed SpA, priority 2004, dated 2010)
